The source made the active and inactive calls. The calls are words filed in the database; no cut-off is given here.
Key:
Mus musculus [1] = assay: Antinociceptive activity in sc dosed Swiss Webster mouse by tail-flick assay; type: functional
[2] = molecular target: T1, Opioid receptors; mu/kappa/delta (Homo sapiens, UniProt P41145+P41143+P35372); assay: Displacement of [3H] naloxone from opioid receptor (unknown origin)
[3] = molecular target: T1, Opioid receptors; mu/kappa/delta; assay: Displacement of [3H] naloxone from opioid receptor (unknown origin) in presence of 100 mM NaCl
Mus musculus [4] = assay: Antinociceptive activity in Swiss Webster mouse at 5.12 mg/kg, sc by tail-flick assay; type: functional; conditions: route subcutaneous
Mus musculus [5] = assay: Antinociceptive activity in Swiss Webster mouse at 1.6 mg/kg, sc by tail-flick assay; type: functional, organism-based; set-up: dose 1.6 mg/kg

Compound	ED50 (Mus musculus [1])	IC50 [2]	IC50 [3]	inhibition in vivo at 5.12 mg/kg (Mus musculus [4])	inhibition (Mus musculus [5])
CN1CC[C@]23c4c5ccc(O)c4O[C@H]2[C@@H](O)C=C[C@H]3[C@H]1C5.Cl [MORPHINE HYDROCHLORIDE]	0.33 mg/kg	–	–	–	–
C=CCN1CC[C@]23c4c5ccc(O)c4O[C@H]2[C@H](N)CC[C@@]3(O)[C@H]1C5.Cl	4.9 mg/kg	8.6 ×10⁻⁸ M	5.3 ×10⁻⁸ M	–	–
Cl.N[C@H]1CC[C@@]2(O)[C@H]3Cc4ccc(O)c5c4[C@@]2(CCN3CC2CC2)[C@H]1O5	–	2.9 nM	9 nM	18%	–
C=CCN1CC[C@]23c4c5ccc(O)c4O[C@H]2[C@@H](N)CC[C@@]3(O)[C@H]1C5.Cl	–	1.4 ×10⁻⁷ M	1.1 ×10⁻⁷ M	–	inactive
Cl.N[C@@H]1CC[C@@]2(O)[C@H]3Cc4ccc(O)c5c4[C@@]2(CCN3CC2CC2)[C@H]1O5	–	9.1 ×10⁻¹⁰ M	7 ×10⁻¹⁰ M	27%	–

Reference: ChEMBL document CHEMBL3244379, “Stereochemical studies on medicinal agents. 23. Synthesis and biological evaluation of 6-amino derivatives of naloxone and naltrexone” (J Med Chem, 1977)
